Laboratory results reported in patent US6498182B2, “Compounds” (Biovitrum AB, priority 2000, dated 2002).

Target: T1, Human PTP1B (Homo sapiens, UniProt P18031)
T1 construct: Human PTP1B (amino acid residues 1-298, cloned from a human placental library); made in house; host or cells: E. coli BL21(DE3)
T1 sequence (P18031 1-298): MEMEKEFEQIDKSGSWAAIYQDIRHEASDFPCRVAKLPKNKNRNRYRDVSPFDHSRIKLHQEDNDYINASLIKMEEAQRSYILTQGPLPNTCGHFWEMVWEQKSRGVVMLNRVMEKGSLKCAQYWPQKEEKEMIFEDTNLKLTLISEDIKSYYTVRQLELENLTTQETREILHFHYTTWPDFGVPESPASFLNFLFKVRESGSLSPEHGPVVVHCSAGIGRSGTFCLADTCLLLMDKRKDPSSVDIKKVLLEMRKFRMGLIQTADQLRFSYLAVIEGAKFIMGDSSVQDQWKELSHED
Assay: PTP1B activity, pNPP substrate, 96-well plate
Type: biochemical
Conditions: 2 mM, control wells
Method: Human PTP1B (amino acid residues 1-298, cloned from a human placental library), without the GST tag and thrombin cleavage site, was inserted into a pMB replicon and transformed into E. coli BL21(DE3), a strain containing a chromosomal copy of the gene for T7 RNA polymerase under control of a lacUV5 promoter. Expression of PTP1B was induced with isopropyl thiogalactose and cells were lysed in lysis buffer comprising 50 mM Tris-HCl pH 7.5, 10% glycerol, 1 mM EDTA, 3 mM DTT, 3 mM MgCl2, and 0.2 mg/ml lysozyme with 1 mg/ml DNAse I. The soluble protein was purified by ion exchange, hydrophobic interaction and gel exclusion chromatography for use in assays to identify PTP1B inhibitors. The plasmid pGEX2K-SHP2 which encoded the catalytic domain of human SHP-2 (residues 252-529) was used to transform E. coli cells. […]
Human PTP1B activity was measured using p-nitrophenol phosphate (pNPP) as substrate in a 96-well microtiter plate format. An assay pH of 7.2 is used for standard assays (measured extinction coefficient=9800 at pH 7.2).
Standard assays were conducted at room temperature in a total volume of 0.2 ml that contains Hepes buffer (50 mM, pH 7.2), NaCl (50 mM), EDTA (1 mM), DTT (1 mM), bovine serum albumin (1 mg/ml), pNPP (1.25 mM) and PTP1B (500 ng/ml, 13.5 nM). […] The OD^405 was subsequently measured. […]

- inhibition of PTP1B-catalyzed hydrolysis of pNPP: completely
SMILES: [Na+].[Na+].[Na+].[O]=[V]([O-])([O-])[O-] [sodium orthovanadate]
